{"source": "paper PMC5066224", "about": "“A Novel Resveratrol Based Tubulin Inhibitor Induces Mitotic Arrest and Activates Apoptosis in Cancer Cells” (Scientific Reports, 2016)", "key": {"[1]": {"assay": "Toxicity evaluation in normal mice (body weight, haematology, liver and kidney function)", "assay_type": "in vivo, BALB/c mice", "conditions": "9 doses", "procedure": "A total number of 10 BALB/c mice were used for the study, of which 5 animals served as normal control while, remaining 5 were treated with SS28 (15 mg/kg). Body weight of each animal was monitored throughout the experiment and average body weight was calculated on 21st day of treatment. In order to evaluate the effect of SS28 on physiological functions, blood was collected (21st day) and analysed as described earlier. The blood […] was analyzed using Neubauer’s chamber, and mean values of total red blood cells (RBCs) and white blood cells (WBCs) were determined. Serum was separated and kidney and liver function tests were performed for each animal, to determine alkaline phosphatase (ALP), […] (ALT), creatinine and urea levels as described earlier. Values are presented as mean ± SEM for both the controls and SS28 administered mice."}, "A549 cells [2]": {"test_system": "A549 cells", "assay": "Immunoblotting of cell cycle and apoptotic proteins", "assay_type": "cell-based, human", "conditions": "A549, 5 μM, 24, 48 and 72 h", "procedure": "Cell lysate was prepared after treating with SS28 (5 μM for 24, 48 and 72 h) from CEM and A549 cell lines. In brief, cells were harvested, washed with PBS, resuspended in lysis buffer (RIPA, 25 mM Tris (pH 7.6), 150 mM NaCl, 1% NP-40, 1% sodium deoxycholate and 0.1% SDS) containing protease inhibitors. The protein lysate was cleared by centrifugation (14,000 rpm, for 15 min). The protein concentration in the supernatant was determined using the Bradford’s assay.\nFor western blot analysis, ~40 μg proteins were resolved over 8–10% SDS–polyacrylamide gel[60][61][62]. Following gel electrophoresis, proteins were transferred to PVDF membrane (Millipore, USAQ9). The primary antibodies used were against Caspase 3, Caspase 9, p73, p53, KU70, KU80, Cyclin B1, CDK6, PARP1 and Actin (Santa Cruz Biotechnology, USA). The membrane was incubated with appropriate HRP-conjugated secondary antibody (2 h at 4° C). The blots were developed using chemiluminescent solution (Immobilon^TM western, Millipore) and scanned by gel documentation system (LAS 3000, FUJI, Japan). Blots were stripped subsequently as per standard protocols and reprobed with anti β-Actin antibody."}, "A549 cells [3]": {"test_system": "A549 cells", "assay": "Immunofluorescence microscopy of spindle microtubule organisation", "assay_type": "cell-based, human", "conditions": "24 h", "procedure": "Immunofluorescence microscopy was performed as previously described. A549 cells were grown on coverslips coated with gelatin (0.1%). […] After 24 h of the treatment nonspecific antibody binding sites were blocked using FBS following which cells were incubated with antitubulin antibody (1:500) at RT. Coverslips were washed in PBS, incubated in biotinylated antimouse secondary antibody (1:500; RT for 1 h) followed by Streptavidin-FITC (1:200). Finally, cells were mounted with DABCO and images were captured using Zeiss Fluorescence microscope and analyzed using Axio vision software. Colchicine treated cells were used as a positive control."}, "HEK293T": {"test_system": "HEK293T", "assay": "Trypan blue dye exclusion cell viability assay", "assay_type": "cell-based, human", "conditions": "1-20 μM, compared to most of the cancer cells", "procedure": "The effect of SS28 on viability of CEM, Reh, Nalm6, SUDHL8, Molt4, A549, HeLa 293T, mouse embryonic fibroblast (MEF) and PBMC was determined by trypan blue dye exclusion assay as described previously. Briefly, cells (0.75 × 10^5 cells/ml) were treated with increasing concentrations of SS28 (1, 5, 10 and 20, μM) for 48 and 72 h. DMSO treated cells were used as the vehicle control. Cells were harvested and subjected to trypan blue assay. Data from a minimum of three independent experiments is presented as a histogram with error bars."}, "[4]": {"conditions": "normal BALB/c mice, 15 mg/kg, 21st day, mean ± SEM"}}, "data": [{"smiles": "COc1cc(/C=C/c2ccc(C)cc2)cc(OC)c1OC", "note": "[SS28, (E)-1,2,3-trimethoxy-5-(4-methylstyryl)benzene]", "values": [{"measurement": "body weight", "setting": "[1]; normal BALB/c mice, 15 mg/kg oral", "value": "no significant difference"}, {"measurement": "number of RBCs and WBCs versus control", "setting": "[1]; normal BALB/c mice, 15 mg/kg, 21st day", "value": "no significant difference"}, {"measurement": "RBC", "setting": "[1]; [4]", "value": "6.43 ± 1.32 10^6 cells/mm^3"}, {"measurement": "WBC", "setting": "[1]; [4]", "value": "3.5 ± 0.99 10^3 cells/mm^3"}, {"measurement": "ALP level versus control", "setting": "[1]; serum, 15 mg/kg, 21st day", "value": "slightly higher"}, {"measurement": "level of ALT versus control", "setting": "[1]; serum, 15 mg/kg, 21st day", "value": "no significant difference"}, {"measurement": "levels of creatinine and urea in the serum versus control", "setting": "[1]; serum, 15 mg/kg, 21st day", "value": "no significant difference"}, {"measurement": "Caspase 3", "setting": "A549 cells [2]", "value": "showed activation"}, {"measurement": "Caspase 9", "setting": "A549 cells [2]", "value": "increase in the cleaved Caspase 9 level"}, {"measurement": "expression level of Cdk6", "setting": "A549 cells [2]", "value": "increased at 24 h followed by a decrease at 48 and 72 h"}, {"measurement": "expression levels of p73", "setting": "A549 cells [2]", "value": "remained same"}, {"measurement": "level of Cyclin B1", "setting": "A549 cells [2]", "value": "maintained throughout the time period, but with a moderate decrease at 48 h"}, {"measurement": "cells displaying abnormal spindle organisation", "setting": "A549 cells [3]; A549, 5 μM", "value": "~ 38%"}, {"measurement": "Metaphase arrest (number of cells)", "setting": "A549 cells [3]; A549, 5 μM, total number of cells 78", "value": 30}, {"measurement": "Metaphase arrest (number of cells)", "setting": "A549 cells [3]; A549, 10 μM, total number of cells 387", "value": 123}, {"measurement": "cytotoxicity on normal cell line", "setting": "HEK293T", "value": "limited cytotoxicity"}]}]}
